Legend:
blood sugar = assay: Hypoglycemic activity in mice (blood sugar by the glucose oxidase method); format: in vivo, KKA^y mice (female, 10 weeks of age); details: KKA^y mice; 0.02% in powder diet CE2 for 4 days; activity of test compound 1 regarded as 100
Description: KKA^y mice (female, 10 weeks of age, 5 mice/group) received ad libitum powder diet CE2 (CLEA JAPAN) containing 0.02% of the compounds indicated below in the table mixed therewith for 4 days. Water was available ad libitum throughout the period. Blood sample were taken from the orbital vein and assayed for blood sugar by the glucose oxidase method.

Toxicity (LD50) in mice = details: mouse, in vivo

Row | Molecule | Hypoglycemic activity (relative potency) (blood sugar) | LD50 (Toxicity (LD50) in mice) [mg/kg]
1 | 5-[4-(2-hydroxy-1-methylcyclohexylmethoxy)benzyl]thiazolidine-2,4-dione [Test compound 4] | 118 | 
2 | C[C@@]1(COc2ccc(CC3SC(=O)NC3=O)cc2)CCC[C@@H](O)C1 (relative stereo) [Test compound 6, 5-[4-(t-3-hydroxy-1-methyl-r-1-cyclohexylmethoxy)benzyl]-thiazolidine-2,4-dione] | 369 | 
3 | C[C@@]1(COc2ccc(CC3SC(=O)NC3=O)cc2)CCC[C@H](O)C1 (relative stereo) [compound 7] | 125 | 
4 | CC1(COc2ccc(CC3SC(=O)NC3=O)cc2)CCCC(=O)C1 (stereo not drawn) [5-[4-(1-methyl-3-oxocyclohexylmethoxy)benzyl]thiazolidine-2,4-dione] |  | ≥ 5000
5 | CC1(COc2ccc(CC3SC(=O)NC3=O)cc2)CCC(O)CC1 (stereo not drawn) [5-[4-(4-hydroxy-1-methylcyclohexylmethoxy)benzyl]thiazolidine-2,4-dione] |  | ≥ 5000
6 | CC1(COc2ccc(CC3SC(=O)NC3=O)cc2)CCC(=O)CC1 (stereo not drawn) [Example 3, 5-[4-(1-methyl-4-oxocyclohexylmethoxy)benzyl]thiazolidine-2,4-dione] |  | ≥ 5000
7 | CC1(COc2ccc(CC3SC(=O)NC3=O)cc2)CCCCC1=O (stereo not drawn) [Test compound 3, 5-[4-(1-methyl-2-oxocyclohexylmethoxy)-benzyl]thiazolidine-2,4-dione] | 179 | ≥ 5000
8 | CC1(COc2ccc(CC3SC(=O)NC3=O)cc2)CCCCC1O (stereo not drawn) [compound 4] | 114 | 
